According to publication PMC3082517 (PLoS Biology, 2011):
Counter-ions that a name gives are not always drawn. Like-named read-outs stand apart in the source and are kept apart here.

Experiments:
p75^NTR = molecular target: T1, p75^NTR (Rattus norvegicus, UniProt P07174); experiment: Heterologous [3H]-DHEA displacement, HEK293^p75NTR cell membranes; assay type: binding; details: for displacement of [3H]-DHEA binding (in words): competitor up to 1000 nM
T1 construct: expressed in transfected cells; host or cells: HEK293
T1 sequence (P07174 30-425): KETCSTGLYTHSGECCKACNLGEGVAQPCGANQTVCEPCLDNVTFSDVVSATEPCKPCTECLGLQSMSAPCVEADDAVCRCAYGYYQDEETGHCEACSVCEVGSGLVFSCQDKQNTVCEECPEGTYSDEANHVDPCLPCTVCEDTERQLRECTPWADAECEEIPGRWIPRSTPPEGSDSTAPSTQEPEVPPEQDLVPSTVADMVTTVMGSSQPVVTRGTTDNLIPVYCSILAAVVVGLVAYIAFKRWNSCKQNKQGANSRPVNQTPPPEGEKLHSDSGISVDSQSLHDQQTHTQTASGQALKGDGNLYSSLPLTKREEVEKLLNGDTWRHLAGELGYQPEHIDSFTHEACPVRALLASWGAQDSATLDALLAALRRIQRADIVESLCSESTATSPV

TrkA [1] = molecular target: T2, TrkA (Rattus norvegicus, UniProt P35739); experiment: Heterologous [3H]-DHEA displacement, HEK293^TrkA cell membranes; assay type: binding; design: expressed in transfected cells; host or cells: HEK293
TrkA [2] = molecular target: T2, TrkA; experiment: TrkA phosphorylation in HEK293^TrkA transfectants (anti-tyrosine IP, Western blot); assay type: cell-based; design: expressed in transfected cells; host or cells: HEK293; details: 10 min (and 20 min), steroids 100 nM, NGF 100 ng/ml
Method: HEK293 cells were transfected with the appropriate plasmids (TrkA, p75^NTR, RIP2, TRAF-6, and RhoGDI) by using Lipofectamine 2000 (Invitrogen). Cells were harvested 48 h after transfection and suspended in lysis buffer (50 mM Tris-HCl, 0.15 M NaCl, 1% Triton-X100, pH 7.4) supplemented with protease inhibitors. Lysates were precleared for 1 h with Protein A-Sepharose beads (Amersham) and immunoprecipitated with the appropriate antibody (pTyr, Flag, or c-myc) overnight at 4°C. Protein A Sepharose beads were incubated with the lysates for 4 h at 4°C with gentle shaking. […] Beads were collected by centrifugation, washed four times with lysis buffer, and resuspended in SDS loading buffer. Proteins were separated by SDS/PAGE, followed by immunoblotting with specific antibodies.
PC12 or HEK293 cells lysates were electrophoresed through a 12% SDS-polyacrylamide gel, and then proteins were transferred to nitrocellulose membranes, which were processed according to standard Western blotting procedures, as previously described. To detect protein levels, membranes were incubated with the appropriate antibodies: Bcl-2 (dilution 1∶500), phospho TrkA (dilution 1∶500), total TrkA (dilution1∶500), p75^NTR (dilution 1∶500), phospho Shc (dilution 1∶1000), total Shc (dilution 1∶1000), phospho Akt (dilution 1∶500), total Akt (dilution 1∶500), phospho ERK1/2 (dilution 1∶500), and total ERK1/2 (dilution 1∶500). Proteins were visualized using the ECL Western blotting kit (ECL Amersham Biosciences, UK), and blots were exposed to Kodak X-Omat AR films. A PC-based Image Analysis program was used to quantify the intensity of each band (Image Analysis, Inc., Ontario, Canada).
To normalize for protein content the blots were stripped and stained with GAPDH antibody (dilution 1∶1000); the concentration of each target protein was normalized versus GAPDH. Where phosphorylation of TrkA or kinases was measured, membranes were first probed for the phosphorylated form of the protein, then stripped, and probed for the total protein.

[3] = molecular target: T3, rat p75^NTR receptor expressed in HEK293 cells (HEK293^p75NTR) (rat, UniProt P07174 30-425); experiment: radioligand binding; heterologous displacement of 1 nM [3H]-DHEA (a steroid) by unlabeled NGF (10^-12-10^-6 M) on membranes (2 mg/ml) of HEK293^TrkA and HEK293^p75NTR cells, PBS pH 7.4 with protease inhibitors, collected on GF/B filters; details: one partner purified
T3 construct: also called p75 neurotrophin receptor; source: HEK293, transfected (Lipofectamine 2000); crude membranes, whole cells and lysate
T3 sequence (looked up): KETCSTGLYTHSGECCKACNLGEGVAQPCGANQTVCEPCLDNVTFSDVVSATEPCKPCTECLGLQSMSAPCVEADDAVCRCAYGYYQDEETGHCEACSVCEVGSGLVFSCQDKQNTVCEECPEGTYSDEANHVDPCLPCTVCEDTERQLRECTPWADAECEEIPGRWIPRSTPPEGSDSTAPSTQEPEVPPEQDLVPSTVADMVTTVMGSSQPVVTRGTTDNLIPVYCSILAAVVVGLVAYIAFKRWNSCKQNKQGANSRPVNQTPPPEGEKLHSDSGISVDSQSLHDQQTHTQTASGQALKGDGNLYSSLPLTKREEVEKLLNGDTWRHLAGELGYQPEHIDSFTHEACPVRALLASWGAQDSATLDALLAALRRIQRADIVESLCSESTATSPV

[4] = molecular target: T4, rat TrkA receptor expressed in HEK293 cells (HEK293^TrkA) (rat, UniProt P35739 33-799); experiment: as above; details: one partner purified
T4 construct: TrkA (NGF receptor tyrosine kinase), rat, expressed from the pHA vector backbone; source: HEK293, transfected (Lipofectamine 2000); crude membranes and whole cells

[5] = molecular target: T3, rat p75^NTR receptor expressed in …; experiment: radioligand binding; homologous [125I]-NGF displacement with unlabeled NGF on membranes isolated from HEK293^TrkA and HEK293^p75NTR transfectants; details: one partner purified
[6] = molecular target: T4, rat TrkA receptor expressed in HEK293 …; experiment: as above; details: one partner purified

T2 sequence (P35739 33-799): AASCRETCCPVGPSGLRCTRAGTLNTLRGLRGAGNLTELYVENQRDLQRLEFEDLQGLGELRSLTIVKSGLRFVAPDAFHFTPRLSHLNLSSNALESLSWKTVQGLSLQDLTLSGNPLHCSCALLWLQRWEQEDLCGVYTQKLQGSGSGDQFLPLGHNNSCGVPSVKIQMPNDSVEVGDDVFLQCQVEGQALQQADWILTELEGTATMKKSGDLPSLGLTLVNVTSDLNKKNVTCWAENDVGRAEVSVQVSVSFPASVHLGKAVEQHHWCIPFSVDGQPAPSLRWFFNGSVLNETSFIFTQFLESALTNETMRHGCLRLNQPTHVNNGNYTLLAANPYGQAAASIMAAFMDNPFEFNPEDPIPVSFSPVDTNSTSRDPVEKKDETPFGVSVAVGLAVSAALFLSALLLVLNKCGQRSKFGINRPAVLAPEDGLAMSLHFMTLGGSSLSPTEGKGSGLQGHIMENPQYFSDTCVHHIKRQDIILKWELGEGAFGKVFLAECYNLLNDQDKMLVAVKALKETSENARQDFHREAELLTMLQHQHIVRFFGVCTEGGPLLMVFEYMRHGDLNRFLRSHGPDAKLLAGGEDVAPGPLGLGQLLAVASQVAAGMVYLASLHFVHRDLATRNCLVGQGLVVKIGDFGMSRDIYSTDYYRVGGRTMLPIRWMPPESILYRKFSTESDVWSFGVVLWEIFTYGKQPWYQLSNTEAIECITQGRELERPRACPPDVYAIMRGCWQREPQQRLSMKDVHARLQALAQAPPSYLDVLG
T4 sequence (P35739 33-799): as above

Molecule: C[C@]12CC[C@H]3[C@@H](CCC4=CC(=O)CC[C@@]43C)[C@@H]1CC[C@@H]2O [testosterone]
- IC50 (p75^NTR): 7.4 ± 3.2 nM
- IC50 (TrkA [1]): 5.3 ± 2.1 nM
- phosphorylation of TrkA (TrkA [2]): unable to increase

Molecule: C[C@]12CC[C@@H]3c4ccc(O)cc4CC[C@H]3[C@@H]1CC[C@@H]2O [Estradiol]
- displacement of [3H]-DHEA binding (in words) (p75^NTR; HEK293^p75NTR membranes): failed to displace
- displacement of [3H]-DHEA binding (in words) (TrkA [1]; HEK293^TrkA membranes, competitor 0.1 to 1000 nM): failed to displace

Molecule: C[C@@H]1C[C@H]2[C@@H]3CCC4=CC(=O)C=C[C@]4(C)[C@@]3(F)[C@@H](O)C[C@]2(C)[C@@]1(O)C(=O)CO [dexamethasone]
- displacement of [3H]-DHEA binding (in words) (p75^NTR; HEK293^p75NTR membranes): ineffective

Molecule: C[C@]12CC[C@H](OS(=O)(=O)O)CC1=CC[C@@H]1[C@@H]2CC[C@]2(C)C(=O)CC[C@@H]12 [DHEAS, dehydroepiandrosterone sulfate]
- IC50 (p75^NTR; HEK293^p75NTR membranes, 1 nM [3H]-DHEA, read-out: IC50 of [3H]-DHEA displacement): 8.1 ± 1.2 nM
- IC50 (TrkA [1]; HEK293^TrkA membranes, 1 nM [3H]-DHEA, read-out: IC50 of [3H]-DHEA displacement): 6.1 ± 1.1 nM
- phosphorylation of TrkA (TrkA [2]): rapidly induced

B1: nerve growth factor (NGF), unlabeled (ligand, UniProt P01139 122-241, looked up)
chain: SSTHPVFHMGEFSVCDSVSVWVGDKTTATDIKGKEVTVLAEVNINNSVFRQYFFETKCRASNPVESGCRGIDSKHWNSYCTTTHTFVKALTTDEKQAAWRFIRIDTACVCVLSRKATRRG
notes: nerve growth factor (NGF); The species of the NGF is told nowhere; also called unlabeled NGF
- IC50 [3]: 1.19 ± 0.45 nM
- IC50 [4]: 0.8 ± 0.2 nM
- IC50 [5]: 1.7 ± 0.38 nM
- IC50 [6]: 0.3 ± 0.09 nM
